Assay [1] deals with T1, human mu opioid receptor (Homo sapiens, UniProt P35372).
T1 construct: host or cells: CHO-K1
Briefly: Radioligand binding assay, human mu opioid receptor. Particulars: [3H]-Diprenorphine displacement, membranes of CHO-K1 cells; read-out: pKi at the human mu opioid receptor (converted).

Assay [2] addresses T1, human mu opioid receptor. Briefly: Human mu GTP-Eu nucleotide exchange assay (agonist mediated activation). It is filed as biochemical. The note with it: bound GTP-Eu relative to DAMGO (IA=100), CHO-K1 membranes expressing human mu opioid receptor; read-out: intrinsic activity (IA).

A value given as a limit tells only on which side of the number the result lay.

T1 sequence (P35372 whole entry): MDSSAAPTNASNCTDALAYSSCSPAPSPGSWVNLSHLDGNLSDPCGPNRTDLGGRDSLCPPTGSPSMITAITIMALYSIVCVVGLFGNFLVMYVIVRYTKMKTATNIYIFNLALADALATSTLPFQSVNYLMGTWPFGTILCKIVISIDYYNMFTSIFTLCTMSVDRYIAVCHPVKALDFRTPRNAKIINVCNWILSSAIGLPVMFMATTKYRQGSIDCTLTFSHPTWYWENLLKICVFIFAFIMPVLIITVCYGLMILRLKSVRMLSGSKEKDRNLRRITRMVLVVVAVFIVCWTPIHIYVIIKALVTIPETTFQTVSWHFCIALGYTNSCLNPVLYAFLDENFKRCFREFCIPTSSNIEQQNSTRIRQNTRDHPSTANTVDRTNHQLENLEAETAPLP

For `O=C(NC(CC1CCCCC1)CN1[C@@H]2CC[C@H]1C[C@@H](c1cccc(O)c1)C2)C1CCCCC1` (stereo partly drawn) [Example 1, cyclohexanecarboxylic acid {1-cyclohexylmethyl-2-[3-endo-(3-hydroxyphenyl)-8-azabicyclo[3.2.1]oct-8-yl]-ethyl}amide], the Ki on human mu opioid receptor [1] was 63.1 pM. Also, the Emax at human mu opioid receptor [2] was -9%.

For `NC(=O)CCC(=O)NC(CC1CCCCC1)CN1[C@@H]2CC[C@H]1C[C@@H](c1cccc(O)c1)C2` (stereo partly drawn) [Example 3, N-{1-cyclohexylmethyl-2-[3-endo-(3-hydroxy-phenyl)-8-azabicyclo[3.2.1]oct-8-yl]ethyl}succinamide], the Ki on human mu opioid receptor [1] is 126 pM. The Emax on human mu opioid receptor [2] turned out to be 3%. Regarding `O=C(NCC1CCCCC1)NC(CC1CCCCC1)CN1[C@@H]2CC[C@H]1C[C@@H](c1cccc(O)c1)C2` (stereo partly drawn) [Example 4, 1-cyclohexylmethyl-3-{1-cyclohexylmethyl-2-[3-endo-(3-hydroxyphenyl)-8-azabicyclo[3.2.1]oct-8-yl]ethyl}urea], on human mu opioid receptor [1], the Ki is 100 pM. Further, the Emax at human mu opioid receptor [2] was -3%.

`CC(C)C[C@H](NC(=O)C(Cc1ccccc1)CN1[C@@H]2CC[C@H]1C[C@@H](c1cccc(C(N)=O)c1)C2)C(N)=O` (mixture of isomers) [Example 6, 3-endo-{8-[(S)-2-(S)-1-carbamoyl-3-methyl-butylcarbamoyl)-3-phenylpropyl]-8-azabicyclo[3.2.1]oct-3-yl}benzamide and 3-endo-{8-[(R)-2-((S)-1-carbamoyl-3-methylbutylcarbamoyl)-3-phenyl-propyl]-8-azabicyclo[3.2.1]oct-3-yl}benzamide]: at human mu opioid receptor [1], the Ki was 63.1 pM. The Emax at human mu opioid receptor [2] was -7%. Turning to `O=C(CO)NC(CC1CCCCC1)CN1[C@@H]2CC[C@H]1C[C@@H](c1cccc(O)c1)C2` (stereo partly drawn) [Example 2, N-{1-cyclohexylmethyl-2-[3-endo-(3-hydroxy-phenyl)-8-azabicyclo[3.2.1]oct-8-yl]ethyl}-2-hydroxyacetamide], the Ki at human mu opioid receptor [1] was 63.1 pM. For the same compound, the Emax at human mu opioid receptor [2] came to 24%. With `CS(=O)(=O)NC(CCN1[C@@H]2CC[C@H]1C[C@@H](c1cccc(C(N)=O)c1)C2)c1ccccc1` (some centres unmarked) [Example 104], at human mu opioid receptor [2], the Emax was ≥ 30%. Turning to `Cc1ccc(S(=O)(=O)NC(CC2CCCCC2)CN2[C@@H]3CC[C@H]2C[C@@H](c2cccc(O)c2)C3)cc1` (stereo partly drawn) [Example 5, N-{1-cyclohexylmethyl-2-[3-endo-(3-hydroxy-phenyl)-8-azabicyclo[3.2.1]oct-8-yl]ethyl}-4-methyl-benzenesulfonamide], at human mu opioid receptor [1], the Ki is 794 pM. The Emax at human mu opioid receptor [2] is 2%. As to `O=C(NC(CCc1ccccc1)CN1[C@@H]2CC[C@H]1C[C@@H](c1cccc(O)c1)C2)c1ccccc1` (some centres unmarked) [Example 76], the Emax on human mu opioid receptor [2] is ≥ 30%.
